Laboratory results as given in the kinase profiling compilation of Christmann-Franck et al. (2016).

Key:
Experiment in all cases: radiometric filter-binding kinase assay
MAPK15 (human) = MAPK15 (human) (UniProt Q8TD08)
MARK2 (human) = MARK2 (human) (UniProt Q7KZI7)
STK3 (human) = STK3 (human) (UniProt Q13188)
CAMKK2 (human) = CAMKK2 (human) (UniProt Q96RR4)
MAPK3 (human) = MAPK3 (human) (UniProt P27361)
MAPK10 (human) = MAPK10 (human) (UniProt P53779)
PKN2 (human) = PKN2 (human) (UniProt Q16513)
MAPK1 (human) = MAPK1 (human) (UniProt P28482)
Sequence of MAPK1 (human) (P28482 whole entry, looked up): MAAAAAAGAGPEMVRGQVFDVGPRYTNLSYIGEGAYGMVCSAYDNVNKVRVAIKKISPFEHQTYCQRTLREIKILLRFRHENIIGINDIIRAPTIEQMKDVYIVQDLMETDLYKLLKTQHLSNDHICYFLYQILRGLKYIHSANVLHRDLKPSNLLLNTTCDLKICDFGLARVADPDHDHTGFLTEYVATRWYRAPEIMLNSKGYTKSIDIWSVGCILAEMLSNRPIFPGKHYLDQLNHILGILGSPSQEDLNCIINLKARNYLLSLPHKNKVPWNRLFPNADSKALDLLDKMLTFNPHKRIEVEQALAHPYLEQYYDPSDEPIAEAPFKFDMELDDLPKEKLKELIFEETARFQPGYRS

YES1 (human) = YES1 (human) (UniProt P07947)
Sequence of YES1 (human) (P07947 whole entry, looked up): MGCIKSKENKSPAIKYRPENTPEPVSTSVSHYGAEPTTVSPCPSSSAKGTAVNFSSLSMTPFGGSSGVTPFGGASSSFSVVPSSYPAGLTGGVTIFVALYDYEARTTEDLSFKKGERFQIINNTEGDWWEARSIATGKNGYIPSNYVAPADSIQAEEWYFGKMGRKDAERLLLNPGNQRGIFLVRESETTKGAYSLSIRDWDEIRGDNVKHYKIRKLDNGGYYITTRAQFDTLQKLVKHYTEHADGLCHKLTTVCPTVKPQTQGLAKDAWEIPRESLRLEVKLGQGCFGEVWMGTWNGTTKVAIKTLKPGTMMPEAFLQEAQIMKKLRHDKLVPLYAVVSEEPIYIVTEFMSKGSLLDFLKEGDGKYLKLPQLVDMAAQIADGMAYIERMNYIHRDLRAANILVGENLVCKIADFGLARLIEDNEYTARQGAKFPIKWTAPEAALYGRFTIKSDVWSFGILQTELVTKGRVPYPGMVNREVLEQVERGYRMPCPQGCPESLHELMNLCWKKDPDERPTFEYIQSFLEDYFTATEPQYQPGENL

AURKB (human) = AURKB (human) (UniProt Q96GD4)
PRKACA (human) = PRKACA (human) (UniProt P17612)
PRKAA1 or PRKAA2 (rat) = settings: accession and sequence are those of the human protein
MAPKAPK2 (human) = MAPKAPK2 (human) (UniProt P49137)
RPS6KA1 KD1 KD2 (human) = RPS6KA1 KD1 KD2 (human) (UniProt Q15418)
MKNK1 (human) = MKNK1 (human) (UniProt Q9BUB5)
Sequence of MKNK1 (human) (Q9BUB5 whole entry, looked up): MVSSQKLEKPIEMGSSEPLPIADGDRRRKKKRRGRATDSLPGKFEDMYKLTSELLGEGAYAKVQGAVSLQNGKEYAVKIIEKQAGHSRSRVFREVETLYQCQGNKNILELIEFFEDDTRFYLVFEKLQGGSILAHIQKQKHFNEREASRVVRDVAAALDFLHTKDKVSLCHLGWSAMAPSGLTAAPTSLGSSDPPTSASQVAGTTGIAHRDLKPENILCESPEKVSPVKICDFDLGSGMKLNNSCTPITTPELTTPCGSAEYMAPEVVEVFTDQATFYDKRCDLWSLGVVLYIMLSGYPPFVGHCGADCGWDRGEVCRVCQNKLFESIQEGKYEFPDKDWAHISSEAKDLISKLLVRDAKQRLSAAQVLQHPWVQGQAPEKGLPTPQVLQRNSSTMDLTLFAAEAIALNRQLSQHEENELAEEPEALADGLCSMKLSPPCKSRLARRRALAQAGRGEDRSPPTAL

MAP3K1 (human) = MAP3K1 (human) (UniProt Q13233)
CHEK1 (human) = CHEK1 (human) (UniProt O14757)
IGF1R (human) = IGF1R (human) (UniProt P08069)
EPHB4 (human) = EPHB4 (human) (UniProt P54760)
MKNK2 (human) = MKNK2 (human) (UniProt Q9HBH9)
SRC (human) = SRC (human) (UniProt P12931)
PHKG1 (human) = PHKG1 (human) (UniProt Q16816)
GCK (human) = GCK (human) (UniProt Q12851)
IKBKB (human) = IKBKB (human) (UniProt O14920)
Sequence of IKBKB (human) (O14920 whole entry, looked up): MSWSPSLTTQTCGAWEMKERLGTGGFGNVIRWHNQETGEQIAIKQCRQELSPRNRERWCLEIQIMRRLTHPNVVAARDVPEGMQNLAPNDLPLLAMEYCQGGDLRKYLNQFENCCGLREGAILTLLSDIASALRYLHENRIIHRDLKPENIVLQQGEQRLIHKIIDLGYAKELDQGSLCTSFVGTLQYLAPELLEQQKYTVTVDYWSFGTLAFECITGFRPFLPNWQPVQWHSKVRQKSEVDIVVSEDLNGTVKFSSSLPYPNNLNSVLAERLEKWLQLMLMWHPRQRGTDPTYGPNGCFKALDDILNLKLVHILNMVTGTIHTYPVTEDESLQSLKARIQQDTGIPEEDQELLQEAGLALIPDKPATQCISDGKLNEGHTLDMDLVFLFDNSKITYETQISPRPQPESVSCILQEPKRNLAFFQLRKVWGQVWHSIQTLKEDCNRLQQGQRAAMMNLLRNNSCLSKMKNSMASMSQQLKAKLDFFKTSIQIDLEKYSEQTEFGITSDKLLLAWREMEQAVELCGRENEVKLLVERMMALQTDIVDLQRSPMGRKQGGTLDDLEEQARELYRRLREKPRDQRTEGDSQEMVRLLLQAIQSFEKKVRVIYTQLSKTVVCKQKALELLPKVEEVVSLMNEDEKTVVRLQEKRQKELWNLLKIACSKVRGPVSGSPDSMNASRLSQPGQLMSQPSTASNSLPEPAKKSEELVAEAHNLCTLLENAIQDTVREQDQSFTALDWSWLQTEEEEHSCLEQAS

MINK1 (human) = MINK1 (human) (UniProt Q8N4C8)
Sequence of MINK1 (human) (Q8N4C8 whole entry, looked up): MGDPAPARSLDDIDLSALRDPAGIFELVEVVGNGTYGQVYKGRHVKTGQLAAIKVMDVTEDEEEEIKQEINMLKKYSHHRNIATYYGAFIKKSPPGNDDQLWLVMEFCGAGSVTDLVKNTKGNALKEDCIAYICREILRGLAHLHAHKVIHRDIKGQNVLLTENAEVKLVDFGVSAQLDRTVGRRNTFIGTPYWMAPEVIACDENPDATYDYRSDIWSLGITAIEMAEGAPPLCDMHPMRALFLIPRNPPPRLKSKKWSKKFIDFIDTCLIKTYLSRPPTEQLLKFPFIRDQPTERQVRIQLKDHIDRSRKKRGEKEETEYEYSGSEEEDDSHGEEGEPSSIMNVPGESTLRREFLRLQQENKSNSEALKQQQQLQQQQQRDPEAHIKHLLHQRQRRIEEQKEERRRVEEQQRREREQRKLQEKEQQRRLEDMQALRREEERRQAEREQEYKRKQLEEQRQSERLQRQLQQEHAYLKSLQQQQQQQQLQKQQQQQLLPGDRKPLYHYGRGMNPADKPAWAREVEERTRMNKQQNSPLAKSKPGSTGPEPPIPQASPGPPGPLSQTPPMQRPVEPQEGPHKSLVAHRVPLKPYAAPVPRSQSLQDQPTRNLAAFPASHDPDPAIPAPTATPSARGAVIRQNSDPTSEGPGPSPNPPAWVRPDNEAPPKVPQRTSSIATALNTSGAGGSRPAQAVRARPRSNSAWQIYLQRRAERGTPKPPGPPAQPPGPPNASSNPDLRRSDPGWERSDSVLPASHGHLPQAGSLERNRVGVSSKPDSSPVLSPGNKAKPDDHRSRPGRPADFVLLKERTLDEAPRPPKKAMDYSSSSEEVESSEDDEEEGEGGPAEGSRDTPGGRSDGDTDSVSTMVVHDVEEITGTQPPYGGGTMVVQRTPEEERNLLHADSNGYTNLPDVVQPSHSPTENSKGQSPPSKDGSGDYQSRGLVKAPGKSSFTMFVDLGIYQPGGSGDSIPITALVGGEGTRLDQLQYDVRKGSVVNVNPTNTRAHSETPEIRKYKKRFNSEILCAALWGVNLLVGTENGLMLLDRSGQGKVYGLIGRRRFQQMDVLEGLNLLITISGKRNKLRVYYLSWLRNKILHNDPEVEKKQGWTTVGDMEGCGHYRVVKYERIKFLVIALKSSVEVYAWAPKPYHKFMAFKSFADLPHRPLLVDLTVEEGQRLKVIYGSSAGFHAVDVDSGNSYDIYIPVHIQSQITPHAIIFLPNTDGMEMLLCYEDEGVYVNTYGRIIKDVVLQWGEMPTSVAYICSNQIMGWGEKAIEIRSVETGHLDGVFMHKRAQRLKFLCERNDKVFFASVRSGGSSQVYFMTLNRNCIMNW

NEK2 (human) = NEK2 (human) (UniProt P51955)
Sequence of NEK2 (human) (P51955 whole entry, looked up): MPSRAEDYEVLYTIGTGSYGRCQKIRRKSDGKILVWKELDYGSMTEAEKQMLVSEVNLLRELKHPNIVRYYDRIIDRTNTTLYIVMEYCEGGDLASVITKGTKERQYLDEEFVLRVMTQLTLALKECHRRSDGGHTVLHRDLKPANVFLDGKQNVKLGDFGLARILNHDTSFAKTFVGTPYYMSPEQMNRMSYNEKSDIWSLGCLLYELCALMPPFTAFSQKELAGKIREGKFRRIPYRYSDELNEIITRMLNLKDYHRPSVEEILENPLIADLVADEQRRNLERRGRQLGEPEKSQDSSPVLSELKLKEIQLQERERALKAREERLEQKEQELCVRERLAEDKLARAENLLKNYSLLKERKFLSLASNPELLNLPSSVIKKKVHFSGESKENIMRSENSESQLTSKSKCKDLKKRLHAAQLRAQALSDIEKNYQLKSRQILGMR

MAP2K1 (human) = MAP2K1 (human) (UniProt Q02750)
CHEK2 (human) = CHEK2 (human) (UniProt O96017)
[1] = test system: AKT2 (human), P31751 [S474D]
NTRK1 (human) = NTRK1 (human) (UniProt P04629)
PIM2 (human) = PIM2 (human) (UniProt Q9P1W9)
[2] = target: STK11 CAB39 STRADA (human) (UniProt Q9Y376+Q7RTN6+Q15831)
MAPK9 (human) = MAPK9 (human) (UniProt P45984)
PRKCA (human) = PRKCA (human) (UniProt P17252)
MAP3K5 (human) = MAP3K5 (human) (UniProt Q99683); settings: compound 10.0 µM

Sequence of MAPK15 (human) (Q8TD08 whole entry, looked up): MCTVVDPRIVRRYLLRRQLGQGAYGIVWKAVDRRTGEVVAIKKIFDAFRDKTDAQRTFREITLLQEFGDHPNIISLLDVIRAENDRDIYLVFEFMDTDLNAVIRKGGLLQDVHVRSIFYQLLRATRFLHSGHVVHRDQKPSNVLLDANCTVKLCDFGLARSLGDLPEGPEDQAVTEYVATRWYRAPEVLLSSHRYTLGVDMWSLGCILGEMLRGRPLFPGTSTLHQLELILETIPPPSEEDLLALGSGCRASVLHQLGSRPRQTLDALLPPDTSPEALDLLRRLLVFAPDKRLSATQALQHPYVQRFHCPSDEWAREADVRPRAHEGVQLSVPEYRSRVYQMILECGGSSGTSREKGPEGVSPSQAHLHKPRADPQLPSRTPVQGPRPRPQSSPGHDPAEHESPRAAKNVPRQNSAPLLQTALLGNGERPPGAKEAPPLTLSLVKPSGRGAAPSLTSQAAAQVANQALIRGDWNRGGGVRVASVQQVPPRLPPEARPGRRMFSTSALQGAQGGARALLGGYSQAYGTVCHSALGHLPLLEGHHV
Sequence of CAMKK2 (human) (Q96RR4 whole entry, looked up): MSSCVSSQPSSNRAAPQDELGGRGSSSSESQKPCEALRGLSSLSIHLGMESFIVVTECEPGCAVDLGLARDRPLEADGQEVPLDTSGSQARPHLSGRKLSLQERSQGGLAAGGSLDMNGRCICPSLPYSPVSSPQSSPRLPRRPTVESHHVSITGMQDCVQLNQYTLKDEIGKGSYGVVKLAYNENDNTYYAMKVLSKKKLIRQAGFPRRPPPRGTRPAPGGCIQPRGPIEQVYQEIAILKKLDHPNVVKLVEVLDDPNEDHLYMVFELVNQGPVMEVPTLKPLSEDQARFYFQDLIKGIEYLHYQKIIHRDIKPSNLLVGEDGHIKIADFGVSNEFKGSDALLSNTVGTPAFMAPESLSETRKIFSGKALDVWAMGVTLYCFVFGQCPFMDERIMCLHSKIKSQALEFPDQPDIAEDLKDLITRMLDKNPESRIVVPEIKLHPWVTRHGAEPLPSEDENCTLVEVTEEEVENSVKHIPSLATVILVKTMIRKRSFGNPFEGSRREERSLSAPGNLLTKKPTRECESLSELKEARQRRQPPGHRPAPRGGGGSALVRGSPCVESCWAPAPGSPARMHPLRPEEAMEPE

Cc1cccc(-c2nn(C(=S)Nc3ccccc3)cc2-c2ccnc3ccccc23)n1
residual activity (MAPK15 (human); compound 0.1 µM): 108%
residual activity (MAPK15 (human); compound 1.0 µM): 93%
residual activity (MARK2 (human); compound 0.1 µM): 121%
residual activity (MARK2 (human); compound 1.0 µM): 110%
residual activity (STK3 (human); compound 0.1 µM): 107%
residual activity (STK3 (human); compound 1.0 µM): 100%
residual activity (CAMKK2 (human); compound 0.1 µM): 100%
residual activity (CAMKK2 (human); compound 1.0 µM): 104%
residual activity (MAPK3 (human); compound 0.1 µM): 105%
residual activity (MAPK3 (human); compound 1.0 µM): 100%
residual activity (MAPK10 (human); compound 0.1 µM): 119%
residual activity (MAPK10 (human); compound 1.0 µM): 99%
residual activity (PKN2 (human); compound 0.1 µM): 105%
residual activity (PKN2 (human); compound 1.0 µM): 91%
residual activity (MAPK1 (human); compound 0.1 µM): 104%
residual activity (MAPK1 (human); compound 1.0 µM): 94%
residual activity (YES1 (human); compound 0.1 µM): 106%
residual activity (YES1 (human); compound 1.0 µM): 70%
residual activity (AURKB (human); compound 0.1 µM): 98%
residual activity (AURKB (human); compound 1.0 µM): 102%
residual activity (PRKACA (human); compound 0.1 µM): 109%
residual activity (PRKACA (human); compound 1.0 µM): 99%
residual activity (PRKAA1 or PRKAA2 (rat); compound 0.1 µM): 99%
residual activity (PRKAA1 or PRKAA2 (rat); compound 1.0 µM): 82%
residual activity (MAPKAPK2 (human); compound 0.1 µM): 117%
residual activity (MAPKAPK2 (human); compound 1.0 µM): 108%
residual activity (RPS6KA1 KD1 KD2 (human); compound 0.1 µM): 110%
residual activity (RPS6KA1 KD1 KD2 (human); compound 1.0 µM): 95%
residual activity (MKNK1 (human); compound 0.1 µM): 103%
residual activity (MKNK1 (human); compound 1.0 µM): 93%
residual activity (MAP3K1 (human); compound 0.1 µM): 130%
residual activity (MAP3K1 (human); compound 1.0 µM): 111%
residual activity (CHEK1 (human); compound 0.1 µM): 107%
residual activity (CHEK1 (human); compound 1.0 µM): 105%
residual activity (IGF1R (human); compound 0.1 µM): 97%
residual activity (IGF1R (human); compound 1.0 µM): 103%
residual activity (EPHB4 (human); compound 0.1 µM): 93%
residual activity (EPHB4 (human); compound 1.0 µM): 93%
residual activity (MKNK2 (human); compound 0.1 µM): 81%
residual activity (MKNK2 (human); compound 1.0 µM): 91%
residual activity (SRC (human); compound 0.1 µM): 102%
residual activity (SRC (human); compound 1.0 µM): 75%
residual activity (PHKG1 (human); compound 0.1 µM): 100%
residual activity (PHKG1 (human); compound 1.0 µM): 112%
residual activity (GCK (human); compound 0.1 µM): 98%
residual activity (GCK (human); compound 1.0 µM): 68%
residual activity (IKBKB (human); compound 0.1 µM): 107%
residual activity (IKBKB (human); compound 1.0 µM): 100%
residual activity (MINK1 (human); compound 0.1 µM): 66%
residual activity (MINK1 (human); compound 1.0 µM): 13%
residual activity (NEK2 (human); compound 0.1 µM): 109%
residual activity (NEK2 (human); compound 1.0 µM): 92%
residual activity (MAP2K1 (human); compound 1.0 µM): 98%
residual activity (CHEK2 (human); compound 0.1 µM): 115%
residual activity (CHEK2 (human); compound 1.0 µM): 110%
residual activity ([1]; compound 0.1 µM): 108%
residual activity ([1]; compound 1.0 µM): 96%
residual activity (NTRK1 (human); compound 0.1 µM): 118%
residual activity (NTRK1 (human); compound 1.0 µM): 99%
residual activity (PIM2 (human); compound 0.1 µM): 97%
residual activity (PIM2 (human); compound 1.0 µM): 94%
residual activity ([2]; compound 0.1 µM): 101%
residual activity ([2]; compound 1.0 µM): 99%
residual activity (MAPK9 (human); compound 0.1 µM): 105%
residual activity (MAPK9 (human); compound 1.0 µM): 90%
residual activity (PRKCA (human); compound 0.1 µM): 97%
residual activity (PRKCA (human); compound 1.0 µM): 102%

O=S(=O)(c1ccc(F)c2nonc12)N1CCN(c2ncc(C(F)(F)F)cc2Cl)CC1
residual activity (MAPK15 (human); compound 10.0 µM): 79%
residual activity (MARK2 (human); compound 10.0 µM): 95%
residual activity (STK3 (human); compound 10.0 µM): 82%
residual activity (CAMKK2 (human); compound 10.0 µM): 83%
residual activity (MAPK3 (human); compound 10.0 µM): 86%
residual activity (MAPK10 (human); compound 10.0 µM): 93%
residual activity (PKN2 (human); compound 10.0 µM): 69%
residual activity (MAPK1 (human); compound 10.0 µM): 90%
residual activity (YES1 (human); compound 10.0 µM): 105%
residual activity (AURKB (human); compound 10.0 µM): 96%
residual activity (PRKACA (human); compound 10.0 µM): 103%
residual activity (PRKAA1 or PRKAA2 (rat); compound 10.0 µM): 92%
residual activity (MAPKAPK2 (human); compound 10.0 µM): 86%
residual activity (RPS6KA1 KD1 KD2 (human); compound 10.0 µM): 90%
residual activity (MKNK1 (human); compound 10.0 µM): 70%
residual activity (MAP3K1 (human); compound 10.0 µM): 85%
residual activity (MAP3K5 (human)): 101%
residual activity (CHEK1 (human); compound 10.0 µM): 96%
residual activity (IGF1R (human); compound 10.0 µM): 93%
residual activity (MKNK2 (human); compound 10.0 µM): 92%
residual activity (SRC (human); compound 10.0 µM): 111%
residual activity (PHKG1 (human); compound 10.0 µM): 90%
residual activity (GCK (human); compound 10.0 µM): 80%
residual activity (IKBKB (human); compound 10.0 µM): 89%
residual activity (MINK1 (human); compound 10.0 µM): 89%
residual activity (NEK2 (human); compound 10.0 µM): 102%
residual activity (MAP2K1 (human); compound 10.0 µM): 99%
residual activity (CHEK2 (human); compound 10.0 µM): 93%
residual activity ([1]; compound 10.0 µM): 84%
residual activity (NTRK1 (human); compound 10.0 µM): 103%
residual activity (PIM2 (human); compound 10.0 µM): 97%
residual activity ([2]; compound 10.0 µM): 97%
residual activity (MAPK9 (human); compound 10.0 µM): 87%
residual activity (PRKCA (human); compound 10.0 µM): 82%
